From patent US20040175383A1, “Methods and compositions for treatment of otitis media” (priority 2002, published 2004)
Read-outs that look alike come from different tables or passages of the source.

How the values were obtained:
[1] = tested on: acute otitis media induced by Streptococcus pneumoniae; format: in vivo, chinchilla
Method: All study animals were initially anesthetized to allow baseline hearing testing (electrocochleography and tympanometry) and to allow bacteria (Streptococcus pneumoniae) to be injected across the thin bone covering the middle ear (dorsal bulla) to induce a middle ear infection bilaterally. After allowing the inflammation to become established for 3 to 4 days, the ears were graded for severity of middle ear inflammation. Half the ears were injected with alpha 1-antitrypsin (100 mg/ml)half with saline. All animals received systemic antibacterial treatment (enrofloxacin). […] Assessment was given quantiatively according to the following table: [table] Hearing assessment were also performed throughout the study and following euthanasia at the end of study, temporal bone specimens were obtained from all ears for histopathological analysis.

[2] = in vivo
Method: (§1) Prospective, randomized, controlled trial in the chinchilla model.
(§2) After completing baseline auditory testing and bilateral transpalatal obstruction of the Eustachian tube (ETO), chinchillas received weekly transbullar injections of protease inhibitor (alpha 1-antitrypsin, ilomastat, or both), vehicle, or saline. After one month, hearing was tested and the animals were sacrificed. Temporal bone histopathology was performed.
(§3) A total of 96 healthy adult chinchillas of either sex, 400-600 grams, were used in this experiment. Prior to entry into the study, all animals were otomicroscopically free of middle ear pathology. All animals underwent auditory testing and bilateral transpalatal obstruction of the Eustachian tube, followed by immediate transbullar injection (across the thin bone covering the dorsal aspect of the middle ear) of saline or vehicle solution, with or without protease inhibitor. Thus, there were five treatment groups: saline, vehicle solution, vehicle with alpha 1-antitrypsin (100 μg /ml), vehicle with ilomastat (100 μg /ml), and vehicle with alpha 1-antitrypsin and ilomastat (100 μg /ml of each). Weekly thereafter, animals received a light anesthetic for ear examinations, transbullar sampling of the middle ear fluid, and transbullar reinjection of saline or the vehicle +/− protease inhibitor. One month after ETO, animals were anesthetized, middle ear fluid was removed, and auditory testing was performed immediately prior to sacrifice. Temporal bones were harvested for histopathological analysis.
(§4) Ilomastat was prepared by substituting alpha 1-antitrypsin. Vehicle was similarly prepared, without the addition of any protease inhibitor. Injectable, 0.9% normal saline was used as the non-treatment control.
(§5) Briefly, the palate was split and the Eustachian tube orifices were bluntly palpated. The orifices were denuded of mucosa, the deeper tissues cauterized, and the lumen packed with Gelfoam sponge. The palate was reapproximated with a single layer of polyglycolic acid sutures.
(§6) Auditory Evaluation: Assessment of auditory thresholds was performed using electrocochleography. […] Electrocochleographic thresholds were measured for clicks and tone pips at 4, 8, 12, and 16 kHz. Stimulus generation was executed by an auditory electrophysiology workstation with SigGen™ and AeP™ software (Tucker-Davis Technologies, Gainesville, Fla.) and Etymotic transducers (ER-2, Elk Grove Village, Ill.). Stimuli were introduced with an insert earphone tube placed into the external auditory canal, just medial to the crus of the helix. Auditory thresholds were evaluated by decreasing stimulus intensity in 5 dB increments, from a maximum of 100 dB, until the waveform disappeared. At that point, the stimulus intensity was increased in 5 dB increments until the waveform re-emerged. […]

[3] = tested on: inner ear / hearing (electrocochleographic thresholds); conditions: in vivo
Method: as §1, §2, §3, §4, §5, §6

[4] = tested on: MMP activity (tMMP, predominantly MMPs 2 and 9) in MEE samples; assay: MMP activity in human middle ear effusion samples in the presence of ilomastat (colorimetric synthetic substrate assay); format: biochemical; design: Inhibition of MMP activity, overall / Ilomastat-MMP Inhibition % (mean inhibition): concentration or dose not given beside the values; conditions: for Ilomastat-MMP Inhibition % (mean inhibition) / MMP >30% Inhibition (percent of samples that had enzyme activity inhibited by >30%): MEE samples
From the text: Human Subjects & Sample Collection: Middle ear effusion (MEE) samples were collected from all consenting patients that presented to the investigators for the treatment of OM. Most samples were taken from subjects at the time of myringotomy, with or without tube placement, for recurrent acute otitis media (RAOM) and chronic otitis media with effusion (COME). Less commonly, samples were collected upon presentation with acute post-tympanostomy otorrhea (APTO) or with chronic suppurative otitis media (CSOM). Samples were aspirated with a Juhn Tymp-Tap (Medtronic-Xomed, Jacksonville, Fla.). The aspiration device was rinsed—and sample diluted—with 500 μl of normal saline and immediately placed on ice for transport to the investigators' laboratories. Samples were centrifuged to remove cellular material then divided into aliquots and frozen until batch processing could be performed.
Protease and Inhibition Analysis: Active (aMMP) and proenzyme (pMMP) forms of MMPs 2 and 9 were measured using a gelatin zymography technique. MMP activity (tMMP, but predominantly MMPs 2 and 9) present in MEE samples was measured using a […] assay that uses a synthetic substrate that reduces Ellmans reagent upon cleavage. Because two different activity assays were used that detected different types and levels of MMPs, a direct comparison between aMMP, pMMP and tMMP was not considered valid. Human neutrophil elastase (HNE) activity was measured using a standard technique. Results were expressed as change in absorbance over time (mAU/min). […] Samples with excessive activity levels were tested by serial dilution. MMP activity was measured in the presence of physiologically deliverable levels of ilomastat.
Statistical Analysis: An analysis of variance was performed on the enzyme activities and mean inhibition of activities to determine if there were differences activities across diagnoses, middle ear findings. If there were statistically significant differences, […] tests were performed. […] The distribution of patients with an activities greater than 3 mAU/min and inhibition greater than 30% was tested using Fisher's exact test to determine if there was a difference in these distributions across diagnoses.

[5] = tested on: inner ear / hearing (electrocochleographic thresholds); assay: Ototoxicity study in chinchilla with Eustachian tube obstruction, weekly transbullar injection of protease inhibitors; conditions: applied to the middle ear
Method: as §1, §2, §3, §4, §5, §6

rAAT: Recombinant alpha 1-antitrypsin, a serine protease inhibitor, expressed in recombinant yeast cells and purified by column chromatography
TM Score ([1]; Day 1, otomicroscopic scale 0 (normal) to 6 (perforated)): 0 | TM Score ([1]; Day 4, scale 0-6): 2.167 | TM Score ([1]; Day 6, scale 0-6): 4.17 | TM Score ([1]; Day 8, scale 0-6): 3.5 | TM Score ([1]; Day 10, scale 0-6): 2.8 | TM Score ([1]; Day 14, scale 0-6): 1.25 | TM Score ([1]; Day 16, scale 0-6): 0.75 | TM Score ([1]; Day 18, scale 0-6): 0.5 | TM Score ([1]; Day 20, scale 0-6): 0.5 | TM Score ([1]; Day 22, scale 0-6): 0 | TM Score ([1]; Day 24, scale 0-6): 0 | TM Score ([1]; Day 26, scale 0-6): 0 | TM Score ([1]; Day 28, scale 0-6): 0 | Middle ear inflammation by otomicroscopy, compared with saline ([1]; otic administration, with systemic enrofloxacin): mitigated the inflammatory process more rapidly than saline | Time to resolution of clinical manifestations of otitis media ([1]; single application of rAAT, control 26 days): 22 days | Persistence of middle ear effusion at the final treatment day (percent of ears) [2]: 100% | Ototoxicity in the chinchilla model [3]: lack ototoxicity

CNC(=O)[C@H](Cc1c[nH]c2ccccc12)NC(=O)[C@@H](CC(=O)NO)CC(C)C [Ilomastat, N-[2(R)-2(hydroxyamidocarbonylmethyl)-4-methylpentanoyl]-L-tryptophan methyl amide]
Ilomastat-MMP Inhibition % (mean inhibition) ([4]; diagnosis APTO): 41.2% | MMP >30% Inhibition (percent of samples that had enzyme activity inhibited by >30%) ([4]; diagnosis APTO): 57% | Ilomastat-MMP Inhibition % (mean inhibition) ([4]; diagnosis COME): 70.0% | MMP >30% Inhibition (percent of samples that had enzyme activity inhibited by >30%) ([4]; diagnosis COME): 86% | Ilomastat-MMP Inhibition % (mean inhibition) ([4]; diagnosis CSOM): 51.5% | MMP >30% Inhibition (percent of samples that had enzyme activity inhibited by >30%) ([4]; diagnosis CSOM): 40% | Ilomastat-MMP Inhibition % (mean inhibition) ([4]; diagnosis Cholesteatoma): 31.5% | MMP >30% Inhibition (percent of samples that had enzyme activity inhibited by >30%) ([4]; diagnosis Cholesteatoma): 71% | Ilomastat-MMP Inhibition % (mean inhibition) ([4]; diagnosis RAOM): 85.5% | MMP >30% Inhibition (percent of samples that had enzyme activity inhibited by >30%) ([4]; diagnosis RAOM): 100% | Ilomastat-MMP Inhibition % (mean inhibition) ([4]; diagnosis RAOM/COME): 81.4% | MMP >30% Inhibition (percent of samples that had enzyme activity inhibited by >30%) ([4]; diagnosis RAOM/COME): 100% | Percent of MEEs with significant inhibition (>30% reduction) of MMP activity ([4]; MEEs with significant MMP activity (>3 mAU/min)): 80% | Inhibition of MMP activity, overall ([4]; all MEE samples): 64% | Persistence of middle ear effusion at the final treatment day (percent of ears) [2]: 83% | Ototoxicity in the chinchilla model [5]: lack ototoxicity
